Assay results: ChEMBL document CHEMBL1139278 (2009)
≈ marks a conversion by molar mass, not a printed value.

Columns and labels:
Assay type in all cases: functional
Streptococcus pyogenes = test: Antimicrobial activity against Streptococcus pyogenes ATCC 112344 by NCCLS method
Streptococcus pneumoniae [1] = test: Antimicrobial activity against penicillin-resistant Streptococcus pneumoniae KT2524 by NCCLS method
Haemophilus influenzae = test: Antimicrobial activity against Haemophilus influenzae TH13 by NCCLS method
Enterococcus faecium = test: Antimicrobial activity against vancomycin-resistant Enterococcus faecium KU1778 by NCCLS method
Staphylococcus aureus [2] = test: Antimicrobial activity against methicillin-resistant Staphylococcus aureus KMP9
Staphylococcus aureus [3] = test: Antimicrobial activity against methicillin-susceptible Staphylococcus aureus infected iv dosed mouse assessed as survival rate after 1 hr of infection
Moraxella catarrhalis = test: Antimicrobial activity against Moraxella catarrhalis K1209 by NCCLS method
Streptococcus pneumoniae [4] = test: Antimicrobial activity against penicillin-susceptible Streptococcus pneumoniae ATCC 49619 by NCCLS method
Staphylococcus aureus [5] = test: Antimicrobial activity against methicillin-susceptible Staphylococcus aureus Smith by NCCLS method

| SMILES | MIC (Streptococcus pyogenes) [µg/mL] | MIC (Streptococcus pneumoniae [1]) [µg/mL] | MIC (Haemophilus influenzae) [µg/mL] | MIC (Enterococcus faecium) [µg/mL] | MIC (Staphylococcus aureus [2]) [µg/mL] | ED50 (Staphylococcus aureus [3]) [mg/kg] | MIC (Moraxella catarrhalis) [µg/mL] | MIC (Streptococcus pneumoniae [4]) [µg/mL] | MIC (Staphylococcus aureus [5]) [µg/mL] |
| --- | --- | --- | --- | --- | --- | --- | --- | --- | --- |
| C=C[C@]1(C)C[C@@H](OC(=O)CN2CCN(C(=O)CCn3cnc4c(N5CCNCC5)ncnc43)CC2)[C@]2(C)[C@H](C)CC[C@]3(CCC(=O)[C@@H]32)[C@@H](C)[C@@H]1O.Cl.Cl | 0.032 | 0.063 | 2 | 0.063 | 0.25 | 1.65 | 0.063 | 0.063 | 0.125 |
| C=C[C@]1(C)C[C@@H](OC(=O)CN2CCN(C(=O)CCn3cnc4c(N5CCC(N)C5)ncnc43)[C@@H](C)C2)[C@]2(C)[C@H](C)CC[C@]3(CCC(=O)[C@@H]32)[C@@H](C)[C@@H]1O.Cl.Cl (stereo not given in full) | 0.032 | 0.063 | 2 | 0.125 | 0.25 | 1.47 | 0.125 | 0.032 | 0.125 |
| C=C[C@]1(C)C[C@@H](OC(=O)CN2CCN(C(=O)CCn3cnc4c(N5CC[C@H](N)C5)ncnc43)[C@@H](C)C2)[C@]2(C)[C@H](C)CC[C@]3(CCC(=O)[C@@H]32)[C@@H](C)[C@@H]1O.Cl.Cl | 0.016 | 0.032 | 4 | 0.125 | 0.5 | 1.1 | 0.125 | 0.032 | 0.25 |
| C=C[C@]1(C)C[C@@H](OC(=O)CN2CCN(C(=O)CCn3cnc4c(N5CCC(CNC)C5)ncnc43)CC2)[C@]2(C)[C@H](C)CC[C@]3(CCC(=O)[C@@H]32)[C@@H](C)[C@@H]1O.Cl.Cl (stereo not given in full) | 0.032 | 0.125 | 4 | 1 | 2 | 1.1 | 0.5 | 0.125 | 0.25 |
| C=C[C@]1(C)C[C@@H](OC(=O)CN2CCN(C(=O)CCn3cnc4c(N5CC[C@@H](N)C5)ncnc43)[C@@H](C)C2)[C@]2(C)[C@H](C)CC[C@]3(CCC(=O)[C@@H]32)[C@@H](C)[C@@H]1O.Cl.Cl | 0.016 | 0.032 | 2 | 0.125 | 0.25 | 1.56 | 0.125 | 0.032 | 0.125 |
| C=C[C@]1(C)C[C@@H](OC(=O)CN2CCN(C(=O)CCn3cnc4c(N5CCC(N)C5)ncnc43)C(C)(C)C2)[C@]2(C)[C@H](C)CC[C@]3(CCC(=O)[C@@H]32)[C@@H](C)[C@@H]1O.Cl.Cl (stereo not given in full) | 0.016 | 0.032 | 4 | 0.063 | 0.125 | 2.32 | 0.032 | 0.032 | 0.125 |
| C=C[C@]1(C)C[C@@H](OC(=O)CN2CCN(C(=O)CCn3cnc4c(N5CCC(CN)C5)ncnc43)CC2)[C@]2(C)[C@H](C)CC[C@]3(CCC(=O)[C@@H]32)[C@@H](C)[C@@H]1O.Cl.Cl (stereo not given in full) | 0.032 | 0.125 | 4 | 1 | 2 | 1.21 | 0.5 | 0.063 | 0.25 |
| C=C[C@]1(C)C[C@@H](OC(=O)CN2CCN(C(=O)CCn3cnc4c(N5CCC(N(C)C)C5)ncnc43)CC2)[C@]2(C)[C@H](C)CC[C@]3(CCC(=O)[C@@H]32)[C@@H](C)[C@@H]1O.Cl.Cl (stereo not given in full) | 0.063 | 0.063 | 4 | 0.125 | 0.25 | 2.94 | 0.125 | 0.125 | 0.25 |
| C=C[C@]1(C)C[C@@H](OC(=O)CN2CCN(C(=O)CCn3cnc4c(N5CCC(N)CC5)ncnc43)CC2)[C@]2(C)[C@H](C)CC[C@]3(CCC(=O)[C@@H]32)[C@@H](C)[C@@H]1O.Cl.Cl | 0.032 | 0.125 | 2 | 0.25 | 1 | 0.97 | 0.125 | 0.125 | 0.25 |
| C=C[C@]1(C)C[C@@H](OC(=O)CN2CCN(C(=O)CCn3cnc4c(N5CCC(N)C5)ncnc43)C[C@H]2C)[C@]2(C)[C@H](C)CC[C@]3(CCC(=O)[C@@H]32)[C@@H](C)[C@@H]1O.Cl.Cl (stereo not given in full) | 0.016 | 0.063 | 2 | 0.063 | 0.5 | 1.42 | 0.063 | 0.032 | 0.25 |
| C=C[C@]1(C)C[C@@H](OC(=O)CN2CCN(C(=O)CCn3cnc4c(N5CCC(N)C5)ncnc43)C(CC)C2)[C@]2(C)[C@H](C)CC[C@]3(CCC(=O)[C@@H]32)[C@@H](C)[C@@H]1O.Cl.Cl (stereo not given in full) | 0.032 | 0.063 | 4 | 0.125 | 0.25 | 2.95 | 0.125 | 0.063 | 0.25 |
| C=C[C@]1(C)C[C@@H](OC(=O)CN2CCN(C(=O)CCn3cnc4c(N5CCC(N)C5)ncnc43)C[C@@H]2C)[C@]2(C)[C@H](C)CC[C@]3(CCC(=O)[C@@H]32)[C@@H](C)[C@@H]1O.Cl (stereo not given in full) | 0.032 | 0.063 | 4 | 0.125 | 0.5 | 1.28 | 0.125 | 0.125 | 0.25 |
| C=C[C@]1(C)C[C@@H](OC(=O)CN2CCN(C(=O)CCn3cnc4c(N5CCC(N)C5)ncnc43)CC2C)[C@]2(C)[C@H](C)CC[C@]3(CCC(=O)[C@@H]32)[C@@H](C)[C@@H]1O.Cl.Cl (stereo not given in full) | 0.032 | 0.063 | 2 | 0.125 | 0.5 | 1.42 | 0.125 | 0.063 | 0.25 |
| C=C[C@]1(C)C[C@@H](OC(=O)CN2CCN(C(=O)CCn3cnc4c(N5CC[C@H](CNC)C5)ncnc43)CC2)[C@]2(C)[C@H](C)CC[C@]3(CCC(=O)[C@@H]32)[C@@H](C)[C@@H]1O.Cl.Cl | 0.032 | 0.063 | 0.5 | 0.5 | 2 | 0.83 | 0.125 | 0.125 | 0.25 |
| C=C[C@]1(C)C[C@@H](OC(=O)CN2CCN(C(=O)CCn3cnc4c(N5CCC(N)CC5)ncnc43)[C@@H](C)C2)[C@]2(C)[C@H](C)CC[C@]3(CCC(=O)[C@@H]32)[C@@H](C)[C@@H]1O.Cl.Cl | 0.032 | 0.063 | 4 | 0.125 | 0.5 | 1.66 | 0.125 | 0.063 | 0.25 |
| C=C[C@]1(C)C[C@@H](OC(=O)CN2CCCN(C(=O)CCn3cnc4c(N5CCC(N)C5)ncnc43)CC2)[C@]2(C)[C@H](C)CC[C@]3(CCC(=O)[C@@H]32)[C@@H](C)[C@@H]1O.Cl.Cl (stereo not given in full) | 0.032 | 0.063 | 4 | 0.25 | 1 | 2.51 | 0.25 | 0.063 | 0.5 |
| C=C[C@]1(C)C[C@@H](OC(=O)CN2CC(C)N(C(=O)CCn3cnc4c(N5CCC(N)C5)ncnc43)CC2C)[C@]2(C)[C@H](C)CC[C@]3(CCC(=O)[C@@H]32)[C@@H](C)[C@@H]1O.Cl.Cl (stereo not given in full) | 0.032 | 0.063 | 4 | 0.125 | 0.25 | 3.13 | 0.125 | 0.063 | 0.25 |
| C=C[C@]1(C)C[C@@H](OC(=O)CN2CCN(C(=O)CCn3cnc4c(N5CCC(NC)C5)ncnc43)CC2)[C@]2(C)[C@H](C)CC[C@]3(CCC(=O)[C@@H]32)[C@@H](C)[C@@H]1O.Cl (stereo not given in full) | 0.032 | 0.125 | 4 | 0.25 | 1 | 1.3 | 0.25 | 0.063 | 0.25 |
| CN[C@H](CC(C)C)C(=O)N[C@H]1C(=O)N[C@@H](CC(N)=O)C(=O)N[C@H]2C(=O)N[C@H]3C(=O)N[C@H](C(=O)N[C@H](C(=O)O)c4cc(O)cc(O)c4-c4cc3ccc4O)[C@H](O)c3ccc(c(Cl)c3)Oc3cc2cc(c3O[C@@H]2O[C@H](CO)[C@@H](O)[C@H](O)[C@H]2O[C@H]2C[C@](C)(N)[C@H](O)[C@H](C)O2)Oc2ccc(cc2Cl)[C@H]1O [VANCOMYCIN] | – | 0.5 (≈ 0.345 µM) | > 128 | > 128 | – | 0.88 | 64 (≈ 44.2 µM) | 0.25 (≈ 0.173 µM) | – |
| C=C[C@]1(C)C[C@@H](OC(=O)CN2CCN(C(=O)CCn3cnc4c(N5CCC(CNC)C5)ncnc43)[C@@H](C)C2)[C@]2(C)[C@H](C)CC[C@]3(CCC(=O)[C@@H]32)[C@@H](C)[C@@H]1O.Cl.Cl (stereo not given in full) | 0.063 | 0.032 | 2 | 0.25 | 1 | 1.2 | 0.125 | 0.063 | 0.125 |
| C=C[C@]1(C)C[C@@H](OC(=O)CN2CCN(C(=O)CCn3cnc4c(N5CCC(N)C5)ncnc43)CC2)[C@]2(C)[C@H](C)CC[C@]3(CCC(=O)[C@@H]32)[C@@H](C)[C@@H]1O.Cl.Cl (stereo not given in full) | 0.032 | 0.063 | 4 | 0.5 | 1 | 0.8 | 0.25 | 0.063 | 0.25 |
| C=C[C@]1(C)C[C@@H](OC(=O)CN2CC(C)N(C(=O)CCn3cnc4c(N5CCC(N)C5)ncnc43)C(C)C2)[C@]2(C)[C@H](C)CC[C@]3(CCC(=O)[C@@H]32)[C@@H](C)[C@@H]1O.Cl.Cl (stereo not given in full) | 0.016 | 0.016 | 4 | 0.063 | 0.125 | > 3.13 | 0.063 | 0.016 | 0.125 |
